Test results published in PMC11949107, “Polyunsaturated fatty acids and their endocannabinoid-related metabolites activity at human TRPV1 and TRPA1 ion channels expressed in HEK-293 cells” (PeerJ, 2025).
“And” between values parts separate entries of the source, which are not always exact repeats. Equal values may be shown once.

Experiments:
human TRPV1 = target: T1, human TRPV1 (Homo sapiens, UniProt Q8NER1); experiment: Calcium 5 dye [Ca]i assay in HEK-293 Flp-In T-REx cells expressing TRPV1 (agonist response); assay type: cell-based; conditions: for Elevation of [Ca]i in HEK-293 TRPV1 cells compared with HEK-293 EV cells / Change of Ca5 fluorescence, Mean ± SEM, TRPV1 (10 µM): 10 µM; for Change of Ca5 fluorescence, Mean ± SEM, TRPV1 (10 µM): percentage of predrug baseline; for Change in Ca5 fluorescence, individual experiments (CRC raw data): TRPV1 cells
T1 construct: Life Technologies (cells); host or cells: Flp-In T-REx HEK-293
Experimental: (§1) The cells were incubated in a 5% CO2 humidified atmosphere at 37 °C. Upon reaching approximately 90% confluence in 75 cm^2 flasks, they were trypsinized and transferred to poly-D-lysine coated 96-well plates (Corning, Castle Hill, NSW, Australia) in L-15 medium supplemented with 1% FBS, 100 U penicillin and 100 µg streptomycin ml^−1 (1% P/S), and 15 mM glucose (80 µL volume per well). After an overnight incubation (maximum of 16 h) in humidified room air at 37 °C, TRPV1 and TRPA1 receptor expression was induced 4 h before experimentation by adding to each well 10 µL tetracycline solution to a final concentration of 1 µg ml^−1.
(§2) Intracellular calcium [Ca]i levels were assessed using the calcium 5 kit from Molecular Devices (# R8186, Sunnyvale, CA, USA) on a FlexStation 3 Microplate Reader (Molecular Devices, Sunnyvale, CA, USA). […] Probenecid (cat # 50027; Biotium) which helps to prevent expulsion of calcium indicator from the cells was added to a final concentration of 1.25 mM. 90 µL of the dye were loaded into each well of the plate and incubated for 1 h before reading in the FlexStation 3 at 37 °C. Fluorescence was recorded every 2 s (λ excitation = 485 nm, λ emission = 525 nm) for 5 min. After 1 min of baseline recording, 20 µL of the drug, dissolved in HBSS with 1% dimethyl sulfoxide (DMSO) (cat # D2650; Sigma-Aldrich, Melbourne, Australia) was added (final DMSO concentration was 0.1% in well).
(§3) The response to agonists was expressed as a percentage change from the average baseline measurement taken for 60s before adding drug. Changes in fluorescence resulting from the addition of solvent were subtracted before normalization to baseline. Concentration–response curves (CRC), Emax and EC50 values were determined using a three-parameter logistic equation (GraphPad Prism, San Diego, CA, USA). […] Potencies were expressed as pEC50, which is the negative log of EC50 in moles per litre (Molar). Where appropriate, unpaired Student’s t-test were used to compare the responses of individual compounds in different conditions, while a one-way ANOVA followed by Dunnett’s multiple comparisons test was used to assess potential differences in responses elicited by a range of compounds. P < 0.05 was considered statistically significant.

human TRPA1 = target: T2, human TRPA1 (Homo sapiens, UniProt O75762); experiment: Calcium 5 dye [Ca]i assay in HEK-293 Flp-In T-REx cells expressing TRPA1 (agonist response); assay type: cell-based; conditions: for Change of Ca5 fluorescence, Mean ± SEM, TRPA1 (10 µM): HEK-293 TRPA1 cells, percentage of predrug baseline; for TRPA1 activation at the highest concentration tested / TRPA1 response compared with the highest concentration of cinnamaldehyde (300 µM) / TRPA1 response, Mean± SEM (N): 30 µM; for TRPA1 response, Mean± SEM (N): one-way ANOVA comparison with cinnamaldehyde 300 µM; for Change in Ca5 fluorescence, individual experiments (CRC raw data): TRPA1 cells
T2 construct: Life Technologies (cells); host or cells: Flp-In T-REx HEK-293
Experimental: as §1, §2, §3

HEK-293 EV cells = experiment: Calcium 5 dye [Ca]i assay in HEK-293 empty vector (EV) cells; assay type: cell-based, human; conditions: 10 µM
Experimental: as §1
Intracellular calcium [Ca]i levels were assessed using the calcium 5 kit from Molecular Devices (# R8186, Sunnyvale, CA, USA) on a FlexStation 3 Microplate Reader (Molecular Devices, Sunnyvale, CA, USA). […] 90 µL of the dye were loaded into each well of the plate and incubated for 1 h before reading in the FlexStation 3 at 37 °C. […] After 1 min of baseline recording, 20 µL of the drug, dissolved in HBSS with 1% dimethyl sulfoxide (DMSO) (cat # D2650; Sigma-Aldrich, Melbourne, Australia) was added (final DMSO concentration was 0.1% in well).
as §3

T2 sequence (O75762 whole entry): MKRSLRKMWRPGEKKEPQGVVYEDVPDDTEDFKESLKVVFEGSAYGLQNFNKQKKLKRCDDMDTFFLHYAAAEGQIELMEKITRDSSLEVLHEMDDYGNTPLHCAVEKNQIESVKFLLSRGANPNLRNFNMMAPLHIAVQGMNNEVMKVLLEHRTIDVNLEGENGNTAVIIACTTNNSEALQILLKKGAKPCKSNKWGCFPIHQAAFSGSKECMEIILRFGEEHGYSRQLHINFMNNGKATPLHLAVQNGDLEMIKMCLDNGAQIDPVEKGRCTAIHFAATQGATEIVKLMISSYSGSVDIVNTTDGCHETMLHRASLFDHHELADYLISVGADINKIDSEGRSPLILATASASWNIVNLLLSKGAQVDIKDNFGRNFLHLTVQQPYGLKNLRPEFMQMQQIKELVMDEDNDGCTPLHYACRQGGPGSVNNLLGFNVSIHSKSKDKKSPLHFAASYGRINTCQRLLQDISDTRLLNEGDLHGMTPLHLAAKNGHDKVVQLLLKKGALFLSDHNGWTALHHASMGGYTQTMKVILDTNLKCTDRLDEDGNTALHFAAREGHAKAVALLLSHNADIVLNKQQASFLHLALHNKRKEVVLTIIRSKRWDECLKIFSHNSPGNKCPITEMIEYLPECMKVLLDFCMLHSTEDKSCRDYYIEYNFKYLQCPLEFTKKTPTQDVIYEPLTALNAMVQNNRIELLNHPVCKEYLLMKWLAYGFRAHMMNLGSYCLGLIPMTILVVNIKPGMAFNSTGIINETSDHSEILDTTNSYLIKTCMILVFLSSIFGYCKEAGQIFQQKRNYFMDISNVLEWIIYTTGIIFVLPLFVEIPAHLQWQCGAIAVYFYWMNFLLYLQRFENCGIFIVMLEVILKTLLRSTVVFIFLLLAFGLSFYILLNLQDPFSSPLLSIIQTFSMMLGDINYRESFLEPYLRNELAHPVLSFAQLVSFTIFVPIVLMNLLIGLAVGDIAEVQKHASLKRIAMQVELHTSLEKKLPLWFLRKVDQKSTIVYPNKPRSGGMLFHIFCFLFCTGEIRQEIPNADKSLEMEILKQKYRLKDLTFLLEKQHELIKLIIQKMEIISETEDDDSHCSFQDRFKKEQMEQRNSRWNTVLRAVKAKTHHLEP
T1 sequence (Q8NER1 whole entry): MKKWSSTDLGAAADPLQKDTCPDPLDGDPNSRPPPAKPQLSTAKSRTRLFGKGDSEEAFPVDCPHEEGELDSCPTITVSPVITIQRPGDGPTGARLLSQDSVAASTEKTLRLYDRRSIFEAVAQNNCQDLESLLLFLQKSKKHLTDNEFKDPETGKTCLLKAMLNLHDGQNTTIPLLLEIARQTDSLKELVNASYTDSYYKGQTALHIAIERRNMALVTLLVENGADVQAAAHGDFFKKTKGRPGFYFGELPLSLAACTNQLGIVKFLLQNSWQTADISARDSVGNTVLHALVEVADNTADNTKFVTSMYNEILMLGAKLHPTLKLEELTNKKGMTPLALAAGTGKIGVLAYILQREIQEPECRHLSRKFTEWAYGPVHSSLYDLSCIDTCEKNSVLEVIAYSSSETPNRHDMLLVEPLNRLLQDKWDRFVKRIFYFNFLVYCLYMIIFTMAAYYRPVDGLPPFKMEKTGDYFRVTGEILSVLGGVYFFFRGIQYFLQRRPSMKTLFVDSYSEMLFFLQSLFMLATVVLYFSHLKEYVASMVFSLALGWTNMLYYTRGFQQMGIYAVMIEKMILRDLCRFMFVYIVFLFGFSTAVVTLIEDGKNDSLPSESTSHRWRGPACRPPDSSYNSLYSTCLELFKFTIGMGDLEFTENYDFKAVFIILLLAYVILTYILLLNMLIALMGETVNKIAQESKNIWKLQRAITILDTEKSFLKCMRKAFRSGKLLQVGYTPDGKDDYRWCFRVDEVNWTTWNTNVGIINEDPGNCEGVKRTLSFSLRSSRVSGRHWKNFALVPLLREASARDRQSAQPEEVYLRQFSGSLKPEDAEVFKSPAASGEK

| SMILES | Elevation of [Ca]i in HEK-293 TRPV1 cells compared with HEK-293 EV cells (human TRPV1) | Change of Ca5 fluorescence, Mean ± SEM, TRPV1 (10 µM) (human TRPV1; HEK-293 TRPV1 cells) [%] | Change in Ca5 fluorescence, individual experiments (CRC raw data) (human TRPV1; log concentration -4.52288 (M)) | Change in Ca5 fluorescence, individual experiments (CRC raw data) (human TRPV1; log concentration -5 (M)) | Change in Ca5 fluorescence, individual experiments (CRC raw data) (human TRPV1; log concentration -5.52288 (M)) | Change in Ca5 fluorescence, individual experiments (CRC raw data) (human TRPV1; log concentration -6 (M)) | Change in Ca5 fluorescence, individual experiments (CRC raw data) (human TRPV1; log concentration -6.52288 (M)) | Change in Ca5 fluorescence, individual experiments (CRC raw data) (human TRPV1; log concentration -7 (M)) | Change of Ca5 fluorescence, Mean ± SEM, TRPA1 (10 µM) (human TRPA1) [%] | TRPA1 activation at the highest concentration tested (human TRPA1) | TRPA1 response compared with the highest concentration of cinnamaldehyde (300 µM) (human TRPA1) | TRPA1 response, Mean± SEM (N) (human TRPA1) | Change in Ca5 fluorescence, individual experiments (CRC raw data) (human TRPA1; log concentration -4.52288 (M)) | Change in Ca5 fluorescence, individual experiments (CRC raw data) (human TRPA1; log concentration -5 (M)) | Change in Ca5 fluorescence, individual experiments (CRC raw data) (human TRPA1; log concentration -5.52288 (M)) | Change in Ca5 fluorescence, individual experiments (CRC raw data) (human TRPA1; log concentration -6 (M)) | Change in Ca5 fluorescence, individual experiments (CRC raw data) (human TRPA1; log concentration -6.52288 (M)) | Change in Ca5 fluorescence, individual experiments (CRC raw data) (human TRPA1; log concentration -7 (M)) | also measured |
| --- | --- | --- | --- | --- | --- | --- | --- | --- | --- | --- | --- | --- | --- | --- | --- | --- | --- | --- | --- |
| CCCCC/C=C\C/C=C\CCCCCCCC(=O)OC(CO)CO [2-LG, 2-linoleoyl glycerol] | significantly greater | 41 ± 13 | 94.4158 and 105.55 and 25.614 and 76.6153 and 45.9507 and 101.137 | 77.397 and 64.9743 and 11.4263 and 68.0539 and 10.4174 and 14.0616 | 11.4427 and 8.3913 and 3.912 and 22.8641 and 8.0659 and 6.3713 | 1.494 and 8.29 and 4.971 and 3.518 and 4.176 and 6.083 | -0.2355 and 4.786 and 26.5089 and 15.6203 and 3.581 and 2.28 | 0.8392 and 7.338 and 6.807 and 12.2096 and 4.264 and 3.998 | 6 ± 2 | no effect | significantly smaller | 10± 60 | 12.5375 and 5.756 and 5.697 and 4.08 and 3.702 and 27.8122 | 11.4202 and 3.2095 and 1.996 and 7.055 and 3.7574 and 11.3273 | 11.369 and 3.556 and 1.657 and 5.485 | 12.4294 and 3.284 and 5.41 and 5.662 and 4.232 and 5.177 | 12.1064 and 3.832 and 1.455 and 7.527 | 15.3703 and 7.007 and 2.201 and 137.719 | TRPV1 response, Mean± SEM (N) (human TRPV1; 30 µM, one-way ANOVA comparison with capsaicin 10 µM): 75± 56; Emax at 30 µM (human TRPV1; HEK293, read-out: Emax ± SEM % TRPV1 (30 µM)): 75 ± 13%; Emax at 30 µM (human TRPA1; HEK293, read-out: Emax ± SEM % TRPA1 (30 µM)): 10 ± 4%; Change of Ca5 fluorescence, Mean ± SEM, EV (10 µM) (HEK-293 EV cells): 4 ± 1% |
| CC/C=C\C/C=C\C/C=C\C/C=C\C/C=C\C/C=C\CCC(=O)NCCO [DHEA, docosahexaenoyl ethanolamide] | significantly greater | 266 ± 51 | 421.157 and 266.746 and 225.074 and 238.504 and 226.816 and 459.662 | 358.299 and 237.035 and 372.804 and 59.1046 and 202.763 and 364.608 | 143.051 and 24.824 and 40.8645 and 14.285 and 22.6333 and 69.1812 | 82.6736 and 2.152 and 3.016 and 2.309 and 4.337 and 4.334 | 7.224 and 2.186 and 3.68 and 2.567 and 2.837 and 6.478 | 5.718 and 2.642 and 2.583 and 2.209 and 5.355 and 1.543 | 107 ± 50 | activated TRPA1 | did not differ | 335± 60 | 349.992 and 313.567 and 315.432 and 199.601 and 366.143 and 464.813 | 252.775 and 33.0558 and 3.468 and 15.2698 and 63.0111 and 272.344 | 2.533 and 3.173 and 1.452 and 10.0203 and 10.0547 and 73.8394 | 2.6845 and 3.9598 and 1.663 and 5.882 and 4.143 and 4.307 | 2.976 and 11.5941 and 1.922 and 8.318 and 8.221 and 6.083 | 8.586 and 11.8101 and 8.8764 and 6.208 and 4.123 and 2.766 | Maximal TRPV1 response compared with the highest concentration of capsaicin (human TRPV1; 30 µM vs capsaicin 10 µM): did not differ; pEC50 ± SEM TRPV1 (human TRPV1; HEK-293 TRPV1 cells, EC50 in molar): 5 ± 0.2; Emax ± SEM % TRPV1 (30 µM) (human TRPV1; highest tested concentration (30 µM) or derived from concentration-response curves (DHEA, AEA, NADA, capsaicin)): 439 ± 81%; Elevation of [Ca]i in HEK-293 TRPA1 cells compared with HEK-293 EV cells (human TRPA1; 10 µM (cinnamaldehyde 300 µM)): significantly greater; Emax ± SEM % TRPA1 (30 µM) (human TRPA1; highest tested concentration (30 µM) or derived from concentration-response curves (cinnamaldehyde)): 335 ± 35%; Change of Ca5 fluorescence, Mean ± SEM, EV (10 µM) (HEK-293 EV cells; HEK-293 EV cells, percentage of predrug baseline): 10 ± 3% |
